Source: PubChem BioAssay (NCI)
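Method: 48-hour compound exposure of cells in 96-well plates, five concentrations, linear interpolation of endpoints. Abbreviation: GI50, concentration required for 50% inhibition of growth. TGI denotes the concentration required for complete inhibition of growth.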

Assays:
Assay in all cases: growth of human tumour cells (NCI), 48 h
[1] = system: HOP-62 NSCLC
[2] = system: MOLT-4 leukemia
[3] = system: SNB-19 CNS
[4] = system: HL-60(TB) leukemia
[5] = system: CCRF-CEM leukemia
[6] = system: HOP-92 NSCLC
[7] = system: NCI-H226 lung
[8] = system: OVCAR-5 ovarian
[9] = system: HCC-2998 colon
[10] = system: UACC-257 melanoma
[11] = system: SK-MEL-2 melanoma
[12] = system: MDA-MB-231 breast
[13] = system: M14 melanoma
[14] = system: IGROV1 ovarian
[15] = system: MCF7 breast
[16] = system: HCT-116 colon
[17] = system: RXF 393 renal
[18] = system: SN12C renal
[19] = system: K-562 leukemia
[20] = system: U251 CNS
[21] = system: PC-3 prostate
[22] = system: 786-0 renal
[23] = system: HT29 colon
[24] = system: LOX IMVI melanoma
[25] = system: MALME-3M melanoma
[26] = system: DU-145 prostate
[27] = system: SNB-75 CNS
[28] = system: NCI-H522 lung
[29] = system: T-47D breast
[30] = system: UO-31 renal
[31] = system: HS 578T breast
[32] = system: COLO 205 colon
[33] = system: SK-MEL-5 melanoma
[34] = system: OVCAR-8 ovarian
[35] = system: A498 renal
[36] = system: UACC-62 melanoma
[37] = system: SF-539 CNS
[38] = system: SF-268 CNS
[39] = system: EKVX NSCLC
[40] = system: RPMI-8226 leukemia
[41] = system: NCI-H23 lung
[42] = system: SF-295 CNS
[43] = system: SW-620 colon
[44] = system: CAKI-1 renal
[45] = system: SK-OV-3 ovarian
[46] = system: BT-549 breast
[47] = system: TK-10 renal
[48] = system: NCI-H460 lung
[49] = system: KM12 colon
[50] = system: SR leukemia
[51] = system: NCI/ADR-RES ovarian
[52] = system: A549 NSCLC
[53] = system: ACHN renal
[54] = system: OVCAR-4 ovarian
[55] = system: HCT-15 colon
[56] = system: MDA-MB-435
[57] = system: SK-MEL-28 melanoma

Cc1ncc(NC(=O)c2ccc(CN3CCN(C)CC3)c(C(F)(F)F)c2)cc1Nc1nccc(-c2cccnc2)n1
GI50 [1]: 15.7 µM
TGI [1]: 30.5 µM
GI50 [2]: 14.9 µM
TGI [2]: 49.6 µM
GI50 [3]: 18 µM
TGI [3]: 32.1 µM
GI50 [4]: 8.57 µM
TGI [4]: 32.3 µM
GI50 [5]: 14.4 µM
TGI [5]: 91.9 µM
GI50 [6]: 4.5 µM
TGI [6]: 21 µM
GI50 [7]: 19.5 µM
TGI [7]: 39.7 µM
GI50 [8]: 15.8 µM
TGI [8]: 29.7 µM
GI50 [9]: 13.4 µM
TGI [9]: 26.6 µM
GI50 [10]: 14.4 µM
TGI [10]: 27.9 µM
GI50 [11]: 14.7 µM
TGI [11]: 29.4 µM
GI50 [12]: 12.5 µM
TGI [12]: 27.3 µM
GI50 [13]: 10.2 µM
TGI [13]: 22.7 µM
GI50 [14]: 10.7 µM
TGI [14]: 24.4 µM
GI50 [15]: 13.8 µM
TGI [15]: 28.7 µM
GI50 [16]: 7.92 µM
TGI [16]: 21.7 µM
GI50 [17]: 11.1 µM
TGI [17]: 23.8 µM
GI50 [18]: 14.4 µM
TGI [18]: 28.9 µM
TGI [19]: > 100 µM
GI50 [20]: 15.9 µM
TGI [20]: 29.9 µM
GI50 [21]: 16.9 µM
TGI [21]: 32.9 µM
GI50 [22]: 15.9 µM
TGI [22]: 29.7 µM
GI50 [23]: 2.81 µM
TGI [23]: 21.8 µM
GI50 [24]: 1.64 µM
TGI [24]: 3.18 µM
GI50 [25]: 0.582 µM
TGI [25]: 14.4 µM
GI50 [26]: 16.7 µM
TGI [26]: 30.4 µM
GI50 [27]: 15.2 µM
TGI [27]: 28.8 µM
GI50 [28]: 17.2 µM
TGI [28]: 33.8 µM
GI50 [29]: 17.9 µM
TGI [29]: 37.5 µM
GI50 [30]: 11.7 µM
TGI [30]: 24 µM
GI50 [31]: 17.7 µM
TGI [31]: 45.7 µM
GI50 [32]: 5.55 µM
TGI [32]: 21.6 µM
GI50 [33]: 16.3 µM
TGI [33]: 30.2 µM
GI50 [34]: 16.8 µM
TGI [34]: 31.6 µM
GI50 [35]: 20.1 µM
TGI [35]: 34.9 µM
GI50 [36]: 13.2 µM
TGI [36]: 26.2 µM
GI50 [37]: 11.8 µM
TGI [37]: 24.4 µM
GI50 [38]: 17.4 µM
TGI [38]: 33.7 µM
GI50 [39]: 17.4 µM
TGI [39]: 31.4 µM
GI50 [40]: 10 µM
TGI [40]: 49.7 µM
GI50 [41]: 14.2 µM
TGI [41]: 28.3 µM
GI50 [42]: 16.2 µM
TGI [42]: 30 µM
GI50 [43]: 13.5 µM
TGI [43]: 30.4 µM
GI50 [44]: 13.7 µM
TGI [44]: 26.7 µM
GI50 [45]: 19.3 µM
TGI [45]: 34.2 µM
GI50 [46]: 18.1 µM
TGI [46]: 32.7 µM
GI50 [47]: 21.6 µM
TGI [47]: 39.1 µM
GI50 [48]: 17.4 µM
TGI [48]: 33 µM
GI50 [49]: 15.3 µM
TGI [49]: 30.2 µM
GI50 [50]: 2.9 µM
TGI [50]: 47.8 µM
GI50 [51]: 17.8 µM
TGI [51]: 34.8 µM
GI50 [52]: 16.4 µM
TGI [52]: 31.5 µM
GI50 [53]: 14.2 µM
TGI [53]: 27.3 µM
GI50 [54]: 15.5 µM
TGI [54]: 29.4 µM
GI50 [55]: 13.6 µM
TGI [55]: 29.7 µM
GI50 [56]: 12 µM
TGI [56]: 24.4 µM
GI50 [57]: 12.7 µM
TGI [57]: 25.4 µM
